Experimental data from patent US9708314B2, “Heterocyclic amide compound” (NISSAN CHEMICAL INDUSTRIES, LTD., priority 2013, dated 2017).

Experiments:
Format in all cases: in vivo
[1] = system: Cyperus difformis; assay: Test Example 3: herbicidal effect by application to foliage (Wagner pot, water depth 0.1-0.5 cm); conditions: Nineteenth Table; application to foliage; application herbicide amount 320 g/ha
Method in brief: (§1)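 Alluvial soil in 1/10000 are Wagner pots, sown and grown 14 days in a 25–30 °C greenhouse. An emulsifiable concentrate diluted in water to the set dose (g/ha) was sprayed on stems and leaves. Effect scored three weeks later on a 0–5 scale: 5 = ≥90% herbicidal ratio, 0 = ≤5%.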

[2] = system: Echinochloa crus-galli var. crus-galli; assay: as above; conditions: Nineteenth Table; application to foliage; application herbicide amount 320 g/ha
Method in brief: as §1

[3] = system: Leptochloa chinensis; assay: as above; conditions: Nineteenth Table; application to foliage; application herbicide amount 320 g/ha
Method in brief: as §1

[4] = system: Beta vulgaris ssp. vulgaris; assay: Test Example 4: effect on crop by application to foliage (diluvial soil, plastic box); conditions: foliage application, 320 g/ha
Method in brief: (§2)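 Read-out is a 0–5 visual grade of herbicidal ratio (5: ≥90%, almost withered; 0: ≤5%) taken three weeks after treatment. Compound was applied as a diluted emulsion to stem and leaf parts of 14-day greenhouse-grown plants (25° C. to 30° C.) at rates expressed as g/ha.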

[5] = system: Brassica campestris L.; assay: as above; conditions: foliage application, 320 g/ha
Method in brief: as §2

[6] = system: Glycine max; assay: as above; conditions: foliage application, 320 g/ha
Method in brief: as §2

[7] = system: Triticum aestivum; assay: as above; conditions: foliage application, 320 g/ha
Method in brief: as §2

[8] = system: Zea mays; assay: as above; conditions: foliage application, 320 g/ha
Method in brief: as §2

[9] = system: directly sowed Oryza sativa; assay: as above; conditions: foliage application, 320 g/ha
Method in brief: as §2

SMILES | E (herbicidal effect grade) [1] | H (herbicidal effect grade) [2] | D (herbicidal effect grade) [3] | f (Beta vulgaris ssp. vulgaris) effect on crop grade [4] | g (Brassica campestris L.) effect on crop grade [5] | c (Glycine max) effect on crop grade [6] | e (Triticum aestivum) effect on crop grade [7] | b (Zea mays) effect on crop grade [8] | d (directly sowed Oryza sativa) effect on crop grade [9]
Cn1nnnc1NC(=O)c1ccc(C(F)(F)F)n2c(C[S+]([O-])CC(F)(F)F)nnc12 (stereo not drawn) [2-035] | 4 (Herbicidal ratio of 70% or more and less than 90%) | 5 (Herbicidal ratio of 90% or more (almost completely withered)) | 5 (Herbicidal ratio of 90% or more (almost completely withered)) | 5 (Herbicidal ratio of 90% or more (almost completely withered)) | 5 (Herbicidal ratio of 90% or more (almost completely withered)) | 2 (Herbicidal ratio of 20% or more and less than 40%) | 4 (Herbicidal ratio of 70% or more and less than 90%) | 5 (Herbicidal ratio of 90% or more (almost completely withered)) | 4 (Herbicidal ratio of 70% or more and less than 90%)
Cn1nnnc1NC(=O)c1ccc(C(F)(F)F)n2c(S(C)(=O)=O)nnc12 [2-037] | 5 (Herbicidal ratio of 90% or more (almost completely withered)) | 5 (Herbicidal ratio of 90% or more (almost completely withered)) | 5 (Herbicidal ratio of 90% or more (almost completely withered)) | 5 (Herbicidal ratio of 90% or more (almost completely withered)) | 5 (Herbicidal ratio of 90% or more (almost completely withered)) | 5 (Herbicidal ratio of 90% or more (almost completely withered)) | 5 (Herbicidal ratio of 90% or more (almost completely withered)) | 5 (Herbicidal ratio of 90% or more (almost completely withered)) | 4 (Herbicidal ratio of 70% or more and less than 90%)
CCS(=O)(=O)c1nnc2c(C(=O)Nc3nnnn3C)ccc(C(F)(F)F)n12 [2-038] | 5 (Herbicidal ratio of 90% or more (almost completely withered)) | 5 (Herbicidal ratio of 90% or more (almost completely withered)) | 5 (Herbicidal ratio of 90% or more (almost completely withered)) | 5 (Herbicidal ratio of 90% or more (almost completely withered)) | 5 (Herbicidal ratio of 90% or more (almost completely withered)) | 5 (Herbicidal ratio of 90% or more (almost completely withered)) | 5 (Herbicidal ratio of 90% or more (almost completely withered)) | 5 (Herbicidal ratio of 90% or more (almost completely withered)) | 5 (Herbicidal ratio of 90% or more (almost completely withered))
COCCn1nnnc1NC(=O)c1ccc(C(F)(F)F)n2c(C(C)C)nnc12 [2-041] | 5 (Herbicidal ratio of 90% or more (almost completely withered)) | 5 (Herbicidal ratio of 90% or more (almost completely withered)) | 5 (Herbicidal ratio of 90% or more (almost completely withered)) | 5 (Herbicidal ratio of 90% or more (almost completely withered)) | 4 (Herbicidal ratio of 70% or more and less than 90%) | 0 (Herbicidal ratio of 5% or less (almost no effect)) | 3 (Herbicidal ratio of 40% or more and less than 70%) | 2 (Herbicidal ratio of 20% or more and less than 40%) | 4 (Herbicidal ratio of 70% or more and less than 90%)
Cc1ccc(-c2nnc3c(C(=O)Nc4nnnn4C)ccc(C(F)(F)F)n23)cc1 [2-042] | 5 (Herbicidal ratio of 90% or more (almost completely withered)) | 5 (Herbicidal ratio of 90% or more (almost completely withered)) | 5 (Herbicidal ratio of 90% or more (almost completely withered)) | 4 (Herbicidal ratio of 70% or more and less than 90%) | 2 (Herbicidal ratio of 20% or more and less than 40%) | 0 (Herbicidal ratio of 5% or less (almost no effect)) | 0 (Herbicidal ratio of 5% or less (almost no effect)) | 4 (Herbicidal ratio of 70% or more and less than 90%) | 3 (Herbicidal ratio of 40% or more and less than 70%)
Cn1nnnc1NC(=O)c1ccc(C(F)(F)F)n2c(-c3ccc(F)cc3)nnc12 [2-043] | 5 (Herbicidal ratio of 90% or more (almost completely withered)) | 5 (Herbicidal ratio of 90% or more (almost completely withered)) | 5 (Herbicidal ratio of 90% or more (almost completely withered)) | 5 (Herbicidal ratio of 90% or more (almost completely withered)) | 4 (Herbicidal ratio of 70% or more and less than 90%) | 1 (Herbicidal ratio of 5% or more and less than 20%) | 3 (Herbicidal ratio of 40% or more and less than 70%) | 3 (Herbicidal ratio of 40% or more and less than 70%) | 4 (Herbicidal ratio of 70% or more and less than 90%)
COc1cccc(-c2nnc3c(C(=O)Nc4nnnn4C)ccc(C(F)(F)F)n23)c1 [2-044] | 5 (Herbicidal ratio of 90% or more (almost completely withered)) | 5 (Herbicidal ratio of 90% or more (almost completely withered)) | 5 (Herbicidal ratio of 90% or more (almost completely withered)) | 5 (Herbicidal ratio of 90% or more (almost completely withered)) | 3 (Herbicidal ratio of 40% or more and less than 70%) | 2 (Herbicidal ratio of 20% or more and less than 40%) | 1 (Herbicidal ratio of 5% or more and less than 20%) | 3 (Herbicidal ratio of 40% or more and less than 70%) | 4 (Herbicidal ratio of 70% or more and less than 90%)
COc1ccccc1-c1nnc2c(C(=O)Nc3nnnn3C)ccc(C(F)(F)F)n12 [2-045] | 5 (Herbicidal ratio of 90% or more (almost completely withered)) | 5 (Herbicidal ratio of 90% or more (almost completely withered)) | 5 (Herbicidal ratio of 90% or more (almost completely withered)) | 5 (Herbicidal ratio of 90% or more (almost completely withered)) | 5 (Herbicidal ratio of 90% or more (almost completely withered)) | 3 (Herbicidal ratio of 40% or more and less than 70%) | 1 (Herbicidal ratio of 5% or more and less than 20%) | 4 (Herbicidal ratio of 70% or more and less than 90%) | 4 (Herbicidal ratio of 70% or more and less than 90%)
